Results taken from patent US8293211B2, “CB1 receptor antagonists and uses thereof” (MAKScientific, LLC, priority 2007, dated 2012).
Where two headings read alike, the source gives them in different places.

Tests used:
hCB1 = molecular target: T1, hCB1 (Homo sapiens, UniProt P21554); assay: Forskolin-stimulated cAMP assay; type: cell-based; settings: HEK293 cells transfected with human CB1 receptors
T1 construct: expressed in transfected cells; host or cells: HEK293
Description: Intracellular cAMP levels were measured with a competitive protein-binding assay using intact HEK293 cells expressing hCB1 or hCB2 and a cAMP immunoassay kit from Sigma (St. Louis, Mo.). In short, forskolin stimulated cells were incubated with various concentrations of compound, cAMP anti-body and cAMP conjugate for 2 hours at ambient temperature. The reaction was stopped by emptying the wells followed by the addition of p-NPP substrate and incubation for 1 hour. […] The results were expressed as percent inhibition of forskolin-stimulated cAMP accumulation and EC50 curves were generated with the use of GraphPad Prism software.

Rats = assay: Operant lever pressing on FR5 schedules; type: in vivo, rat; settings: for ED50: Rattus norvegicus
Description: Following the initial training period, rats (n=8 each group) were injected with drug and then tested once a week on Thursdays. For experiments 1 and 2, Compound 3 or Compound 2, respectively were injected IP at doses of 1.0, 2.0, 4.0, or 8.0 mg/kg or vehicle. Pretreatment time for these two experiments was 30 min. For experiments 3 and 4, rats were given drug or vehicle orally 1 hour before testing. In experiment 3, rats were given vehicle or 8.0, 16.0, or 32.0 mg/kg Compound 3. In experiment 4, rats received vehicle or Compound 2 at doses of 4.0, 8.0, or 16.0 mg/kg. All doses were given in a randomized order using a repeated measures design.

[1] = tested on: Male Sprague-Dawley (SD) rats; assay: Food intake studies (experiments A, B, C), food intake and body weight; type: in vivo, rat; settings: for food intake, difference to rats treated with Compound 3: 5 mg kg-1 each
Description: All experimental protocols were approved by internal guidelines. Different concentrations of drugs were administered I.P. in a 1 ml kg-1 (milliliters per kilogram) volume, except M6G, which was given s.c. (subcutaneously) in a 0.1 ml kg-1 volume.
Food and water were presented in inverted glass bottles that attached to the outside of the cage. Food was available for 18 h each day starting at 16:00 h (12 h light-dark cycle; lights off 16:00 h).
Intake measurements were taken at 1.5 h, 3 h, 5 h, and 18 h after food became available.
Rats were habituated to testing and handling procedures as before. […] Food intake and body weight were monitored daily.
On the day of the experiment each rat received only a single injection, 30 min later food was made available as described in experiment 1. Food intake was measured 0.5, 1.5, 3, 5, and 18 h after administration. Food intake and body weight were monitored daily for five days after the experiment to assess the sustained effect of a single administration of each compound.

CB1 receptor = CB1 receptor (Rattus norvegicus, UniProt P20272); assay: Thermoregulation assay: hypothermia induced by the CB1 agonist CP55,940; type: in vivo; design: antagonized CB1 receptors in vivo; from tissue; host or cells: whole animal, male SD rats; settings: 5 mg kg-1 pre-treatment 45 min before CP55,940 0.3 mg kg-1; compared with vehicle
Description: Briefly, silicone coated temperature data loggers (SubCue Inc, Calgary, Canada) were surgically implanted into the abdominal cavity of male SD (450-500 g) rats under isoflurane anesthesia (4% induction; 2-2.5% maintenance). Rats were allowed to recover for 3 days before being acclimatized to testing and handling procedures for an additional seven days. Core body temperature readings were sampled every 5 min for 300 min during the course of each experiment.

Chain of CB1 receptor (P20272 whole entry): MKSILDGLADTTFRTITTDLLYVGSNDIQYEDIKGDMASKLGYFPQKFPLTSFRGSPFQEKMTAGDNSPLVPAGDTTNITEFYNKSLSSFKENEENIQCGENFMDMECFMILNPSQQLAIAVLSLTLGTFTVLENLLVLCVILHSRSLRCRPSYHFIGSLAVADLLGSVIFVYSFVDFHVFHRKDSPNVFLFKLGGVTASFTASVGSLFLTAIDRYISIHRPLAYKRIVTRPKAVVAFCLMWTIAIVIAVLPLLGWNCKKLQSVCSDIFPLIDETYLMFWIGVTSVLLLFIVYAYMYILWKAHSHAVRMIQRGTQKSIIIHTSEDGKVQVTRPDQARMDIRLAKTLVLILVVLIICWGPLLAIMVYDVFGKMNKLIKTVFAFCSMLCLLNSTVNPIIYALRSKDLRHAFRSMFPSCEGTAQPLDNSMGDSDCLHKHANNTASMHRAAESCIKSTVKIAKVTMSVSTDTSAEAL
T1 sequence (P21554 whole entry): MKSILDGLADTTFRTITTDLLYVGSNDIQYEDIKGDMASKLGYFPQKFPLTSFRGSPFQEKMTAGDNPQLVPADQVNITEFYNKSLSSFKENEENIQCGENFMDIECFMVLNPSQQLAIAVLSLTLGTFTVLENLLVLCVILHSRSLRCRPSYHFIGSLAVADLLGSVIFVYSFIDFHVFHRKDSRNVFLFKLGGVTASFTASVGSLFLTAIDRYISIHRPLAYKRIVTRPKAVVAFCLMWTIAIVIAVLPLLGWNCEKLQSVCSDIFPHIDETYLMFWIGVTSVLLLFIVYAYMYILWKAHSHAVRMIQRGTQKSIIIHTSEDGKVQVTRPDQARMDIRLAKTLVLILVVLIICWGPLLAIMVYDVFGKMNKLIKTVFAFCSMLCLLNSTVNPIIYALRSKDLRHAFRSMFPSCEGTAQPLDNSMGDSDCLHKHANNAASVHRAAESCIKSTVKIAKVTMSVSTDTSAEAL

effect on forskolin stimulated cAMP production (hCB1) | Compound | suppression of FR5 responding compared to vehicle (Rats; IP 1.0, 2.0, 4.0, 8.0 mg/kg) | ED50 (Rats; IP, pretreatment 30 min, read-out: ED50 for the effect on FR5 responding) | ED50 (Rats; oral, 1 hour before testing, read-out: ED50 for suppression of lever pressing on FR5) | change in lever pressing on FR5 compared to vehicle (Rats; oral, 1 hour before testing (Compound 3 8.0-32.0 mg/kg; Compound 2 4.0-16.0 mg/kg)) | acute effect on food intake compared with vehicle ([1]; experiment A, 5 mg kg-1 I.P. single dose) | food intake, difference to rats treated with Compound 3 ([1]; experiment A, 5 h) | food intake, difference to rats treated with Compound 3 ([1]; experiment A, 18 h) | early effect on food intake at each time point ([1]; experiment C, 5 mg kg-1 single dose) | weight gain for several days after the experiment ([1]; experiment C, single administration (Compound 1 5 mg kg-1; Compound 3 10, 20 mg kg-1)) | hypothermic effect of CP55,940 (CB1 receptor)
no effect | Cc1c(C(=O)NN2CCOCC2)nn(-c2ccc(Cl)cc2Cl)c1-c1ccc(C#CCCC#N)cc1 [Compound 2] | significantly suppressed | 0.576 mg/kg | 1.49 mg/kg | dose-dependent decrease | – | – | – | – | – | –
– | Cc1c(C(=O)NN2CCCCC2)nn(-c2ccc(Cl)cc2Cl)c1-c1ccc(I)cc1 [Compound 1, N-(Piperidin-1-yl)-5-(4-iodophenyl)-1-(2,4-dichlorophenyl)-4-methyl-1H-pyrazole-3-carboxamide, reference compound] | – | – | – | – | significantly reduced food intake | -15.5 g | -26.1 g | significantly reduced food intake | significantly reduced | significantly attenuated
